Laboratory results published in the NIST ThermoML archive (doi:10.1016/j.jct.2018.07.031).

What was measured:
[1] = xn = mol fraction of the nth substance listed; conditions: x1 = 0.333; for surface tension liquid-gas: Drop volume; for viscosity / electrical conductivity / speed of sound / mass density: 100 kPa, Liquid; for viscosity: Capillary tube (Ostwald / Ubbelohde) method; for electrical conductivity: Frequency=0.002 MHz, Alternating current cell with electrodes; for speed of sound: Frequency=3 MHz, Single path-length method; for mass density: Vibrating tube method
[2] = molar heat capacity at constant pressure; xn = mol fraction of the nth substance listed; conditions: 100 kPa, Liquid, DSC, x1 = 0.333
[3] = refractive index (Na D-line) (dimensionless); xn = mol fraction of the nth substance listed; conditions: 100 kPa, Liquid, Standard Abbe refractometry, x1 = 0.333

C[N+](C)(C)CCO.[Cl-] [choline chloride] + OCC(O)CO
Conditions	electrical conductivity, [1] [S/m]	mass density, [1] [kg/m3]	molar heat capacity at constant pressure, [2] [J/K/mol]	refractive index, [3]	speed of sound, [1] [m/s]	surface tension liquid-gas, [1] [mN/m]	viscosity, [1] [mPa·s]
278.15 K	0.026	1207.05	211.5	–	2049.6	68.01	1511
280.65 K	0.032	1205.6	212.5	–	2042.8	67.9	1211
283.15 K	0.0406	1204.2	213.5	1.48809	2036.2	67.77	982.4
285.65 K	0.0491	1202.8	214.5	1.4875	2029.9	67.65	801.5
288.15 K	0.0587	1201.4	215	1.48698	2024	67.5	658.4
290.65 K	0.0703	1200	216	1.48632	2018.2	67.34	543.7
293.15 K	0.0839	1198.55	217	1.48574	2012.6	67.2	452.6
295.65 K	0.0992	1197.15	217.5	1.48514	2006.9	67.1	378.5
298.15 K	0.117	1195.75	218.5	1.48455	2001.3	66.95	319.7
300.65 K	0.136	1194.3	219	1.48396	1995.8	66.81	271.4
303.15 K	0.158	1192.9	220	1.48337	1990.2	66.7	232.1
305.65 K	0.182	1191.5	221	1.48278	1984.7	66.57	199
308.15 K	0.21	1190.15	221.5	1.48218	1979.2	66.43	171.6
310.65 K	0.24	1188.75	222.5	1.48159	1973.8	66.31	149
313.15 K	0.276	1187.4	223.5	1.48098	1968.3	66.18	130
315.65 K	0.314	1186	224	1.4804	1962.8	66.05	113.8
318.15 K	0.352	1184.65	225	1.4798	1957.4	65.93	100
320.65 K	0.394	1183.25	226	1.47921	1951.8	65.74	88.43
323.15 K	0.439	1181.9	227	1.4786	1946.3	65.62	78.39
325.65 K	0.487	1180.5	228	1.47801	1940.7	65.48	69.46
328.15 K	0.544	1179.1	228.5	1.47741	1935.2	65.38	62.06
330.65 K	0.603	1177.7	229	1.47681	1929.6	65.23	55.63
333.15 K	0.662	1176.35	230	1.47622	1924.1	65.1	50.05
335.65 K	0.729	1174.95	231	1.47564	1918.5	64.97	45.19
338.15 K	0.801	1173.55	232	1.47504	1912.9	64.84	40.94
